Assays:
[1] = biological target: Bcl-2 (Homo sapiens, UniProt P10415); experiment: Bcl-2 binding affinity analysis (fluorescence polarization binding assay); settings: read-out: BcI2 (Ki, Bcl-2 binding affinity)
From the text: (§1) Bcl-2 and Bcl-xL binding may be determined using a variety of known methods. One such assay is a sensitive and quantitative in vitro binding assay using fluorescence polarization (FP) described by Wang, J.-L.; Zhang, Z-J.; Choksi, S.; Sjam. S.; Lu, Z.; Croce, C. M.; Alnemri, E. S.; Komgold, R.; Huang, Z. Cell permeable Bcl-2 binding peptides: a chemical approach to apoptosis induction in tumor cells. Cancer Res. 2000, 60, 1498-1502).
(§2) Bcl-2 and Bcl-xL binding affinity analysis data is presented below for various compounds of the invention.

[2] = biological target: Bcl-xL (Homo sapiens, UniProt Q07817); experiment: Bcl-xL binding affinity analysis (fluorescence polarization binding assay); settings: read-out: BcI-XI (Ki, Bcl-xL binding affinity)
From the text: as §1, §2

Sequence of Bcl-xL (Q07817 whole entry): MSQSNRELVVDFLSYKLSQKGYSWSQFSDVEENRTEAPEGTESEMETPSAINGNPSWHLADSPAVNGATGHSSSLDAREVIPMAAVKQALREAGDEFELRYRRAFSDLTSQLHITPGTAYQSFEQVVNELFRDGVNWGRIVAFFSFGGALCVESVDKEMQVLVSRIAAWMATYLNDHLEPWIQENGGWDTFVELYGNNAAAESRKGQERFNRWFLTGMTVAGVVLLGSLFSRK
Sequence of Bcl-2 (P10415 whole entry): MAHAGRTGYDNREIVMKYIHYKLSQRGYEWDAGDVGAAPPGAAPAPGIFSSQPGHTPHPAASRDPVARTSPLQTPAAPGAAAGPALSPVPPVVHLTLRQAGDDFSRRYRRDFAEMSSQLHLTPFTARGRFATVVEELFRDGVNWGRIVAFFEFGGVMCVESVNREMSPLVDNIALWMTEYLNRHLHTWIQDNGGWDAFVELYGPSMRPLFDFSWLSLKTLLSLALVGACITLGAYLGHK

Ki [1] [µM]	Ki [2] [µM]	Compound
< 0.001	< 1	CC(C)C[C@H](CN(C)C)NC(=O)c1cc(-c2cccc(CN3O[C@@H](CO)[C@@H]([C@H](C)O)[C@H]3C(=O)N[C@H]3C[C@H]4C[C@@H]([C@@H]3C)C4(C)C)c2OCC2CC2)cc(N(C)C)c1 [Compound 34]
< 0.001	1 to 5	CCN(CC)c1cc(C(=O)N[C@@H](CC(C)C)CN(C)C)cc(-c2cccc(CN3O[C@@H](CO)[C@@H]([C@H](C)O)[C@H]3C(=O)N[C@H]3C[C@H]4C[C@@H]([C@@H]3C)C4(C)C)c2OC)c1 [Compound 267]
< 0.001	< 1	COc1c(CN2O[C@@H](CO)[C@@H]([C@H](C)O)[C@H]2C(=O)N[C@H]2C[C@H]3C[C@@H]([C@@H]2C)C3(C)C)cccc1-c1cc(C(=O)N[C@H](CN(C)C)CC(C)(C)C)c(Br)c(N(C)C)c1 [Compound 257]
< 0.001	< 1	CCOc1c(CN2O[C@@H](CO)[C@@H]([C@H](C)O)[C@H]2C(=O)N[C@H]2C[C@H]3C[C@@H]([C@@H]2C)C3(C)C)cccc1-c1cc(C(=O)N[C@H](CN(C)C)CC(C)(C)C)cc(N(C)C)c1 [Compound 24]
< 0.001	> 10	COc1c(CN2O[C@@H](CN)[C@@H]([C@H](C)O)[C@H]2C(=O)N[C@H]2C[C@H]3C[C@@H]([C@@H]2C)C3(C)C)cccc1-c1cc(C(=O)NCCc2ccccn2)cc(N(C)C)c1 [Compound 64]
> 0.009	> 10	CNC(=O)c1cc(-c2cccc(CN3O[C@@H](CN)[C@@H]([C@H](C)OC(=O)NCCN(C)C)[C@H]3C(=O)N[C@H]3C[C@H]4C[C@@H]([C@@H]3C)C4(C)C)c2OC)cc(N(C)C)c1 [Compound 92]
< 0.001	5 to 10	COc1c(CN2O[C@@H](CN)[C@@H]([C@H](C)O)[C@H]2C(=O)N[C@H]2C[C@H]3C[C@@H]([C@@H]2C)C3(C)C)cccc1-c1cc(C(=O)N(C)OC)cc(N(C)C)c1 [Compound 66]
< 0.001	< 1	COc1c(CN2O[C@@H](CO)[C@@H]([C@H](C)O)[C@H]2C(=O)N[C@H]2C[C@H]3C[C@@H]([C@@H]2C)C3(C)C)cccc1-c1cc(C(=O)N[C@H](CN(C)C)[C@H](OC)c2ccccc2)cc(N(C)C)c1 [Compound 152]
> 0.009	5 to 10	CNC(=O)c1cc(-c2cccc(CN3O[C@@H](CNC(=O)CCC(=O)OC)[C@@H]([C@H](C)O)[C@H]3C(=O)N[C@H]3C[C@H]4C[C@@H]([C@@H]3C)C4(C)C)c2OC)cc(N(C)C)c1 [Compound 78]
> 0.009	5 to 10	CNC(=O)c1cc(-c2cccc(CN3O[C@@H](CN(CC(C)C)CC(C)C)[C@@H]([C@H](C)O)[C@H]3C(=O)N[C@H]3C[C@H]4C[C@@H]([C@@H]3C)C4(C)C)c2OC)cc(N(C)C)c1 [Compound 98]
< 0.001	< 1	COc1c(CN2O[C@@H](CO)[C@@H]([C@H](C)O)[C@H]2C(=O)N[C@H]2C[C@H]3C[C@@H]([C@@H]2C)C3(C)C)cccc1-c1cc(C(C)=O)cc(C(=O)N[C@@H](Cc2ccccc2)CN(C)C)c1 [Compound 299]
< 0.001	< 1	COc1c(-c2cc(C(=O)N[C@H](CN(C)C)[C@@H](NS(C)(=O)=O)c3ccccc3)cc(N(C)C)c2)ccc(F)c1CN1O[C@@H](CO)[C@@H]([C@H](C)O)[C@H]1C(=O)N[C@H]1C[C@H]2C[C@@H]([C@@H]1C)C2(C)C [Compound 151]
< 0.001	1 to 5	C[C@@H]1[C@@H](NC(=O)[C@@H]2[C@H]([C@H](C)O)[C@H](CO)ON2Cc2cccc(-c3cc(C(=O)N[C@@H](Cc4ccccc4)CN(C)C)cc(N(C)C)c3)c2OCCN(C)C)C[C@H]2C[C@@H]1C2(C)C [Compound 100]
0.001 to 0.005	1 to 5	COc1c(CN2O[C@@H](CO)[C@@H]([C@H](C)O)[C@H]2C(=O)N[C@H]2C[C@H]3C[C@@H]([C@@H]2C)C3(C)C)cccc1-c1cc(NCC(C)C)cc(C(=O)N[C@@H](CC(C)C)CN(C)C)c1 [Compound 270]
< 0.001	1 to 5	CCN1CCC[C@@H]1CNC(=O)c1cc(-c2cccc(CN3O[C@@H](CN)[C@@H]([C@H](C)O)[C@H]3C(=O)N[C@H]3C[C@H]4C[C@@H]([C@@H]3C)C4(C)C)c2OC)cc(N(C)C)c1 [Compound 60]
< 0.001	< 1	COc1c(CN2O[C@@H](CO)[C@@H]([C@H](C)O)[C@H]2C(=O)N[C@H]2C[C@H]3C[C@@H]([C@@H]2C)C3(C)C)cccc1-c1cc2c(c(C(=O)N[C@H](CN(C)C)CC(C)(C)C)c1)OCO2 [Compound 202]
< 0.001	< 1	CNC(=O)CN(C)c1cc(C(=O)N[C@@H](Cc2ccccc2)CN(C)C)cc(-c2cccc(CN3O[C@@H](CO)[C@@H]([C@H](C)O)[C@H]3C(=O)N[C@H]3C[C@H]4C[C@@H]([C@@H]3C)C4(C)C)c2OC)c1 [Compound 309]
0.005 to 0.009	1 to 5	CNC(=O)c1cc(-c2cccc(CN3O[C@@H](CNC(=O)CCC(=O)O)[C@@H]([C@H](C)O)[C@H]3C(=O)N[C@H]3C[C@H]4C[C@@H]([C@@H]3C)C4(C)C)c2OC)cc(N(C)C)c1 [Compound 75]
< 0.001	1 to 5	COc1c(CN2O[C@@H](CN)[C@@H]([C@H](C)O)[C@H]2C(=O)N[C@H]2C[C@H]3C[C@@H]([C@@H]2C)C3(C)C)cccc1-c1cc(C(=O)N[C@@H](Cc2ccccc2)CN(C)C)cc(N(C)CCO)c1 [Compound 302]

Second part, the compound before the results:

Compound	Ki [1] [µM]	Ki [2] [µM]
CCNc1cc(C(=O)N[C@@H](CC(C)C)CN(C)C)cc(-c2cccc(CN3O[C@@H](CO)[C@@H]([C@H](C)O)[C@H]3C(=O)N[C@H]3C[C@H]4C[C@@H]([C@@H]3C)C4(C)C)c2OC)c1 [Compound 269]	< 0.001	< 1
C[C@@H]1[C@@H](NC(=O)[C@@H]2[C@H]([C@H](C)O)[C@H](CO)ON2Cc2cccc(-c3cc(C(=O)N[C@H](CN(C)C)CC(C)(C)C)cc(N(C)C)c3)c2OCC2CC2)C[C@H]2C[C@@H]1C2(C)C [Compound 33]	< 0.001	< 1
COc1c(CN2O[C@@H](CNC(=O)C(F)(F)F)[C@@H]([C@H](C)O)[C@H]2C(=O)N[C@H]2C[C@H]3C[C@@H]([C@@H]2C)C3(C)C)cccc1-c1cc(C(=O)NCCc2ccccc2)cc(N(C)C)c1 [Compound 74]	> 0.009	5 to 10
COc1c(CN2O[C@@H](CO)[C@@H]([C@H](C)O)[C@H]2C(=O)N[C@H]2C[C@H]3C[C@@H]([C@@H]2C)C3(C)C)cccc1-c1cc(C(=O)NCCc2ccccc2)cc(N(C)C)c1 [Compound 126]	< 0.001	< 1
COc1c(CN2O[C@@H](CN(C)C)[C@@H]([C@H](C)O)[C@H]2C(=O)N[C@H]2C[C@H]3C[C@@H]([C@@H]2C)C3(C)C)cccc1-c1cc(C(=O)NCCc2ccccc2)cc(N(C)C)c1 [Compound 80]	0.005 to 0.009	5 to 10
CCOc1c(CN2O[C@@H](CN)[C@@H]([C@H](C)O)[C@H]2C(=O)N[C@H]2C[C@H]3C[C@@H]([C@@H]2C)C3(C)C)cccc1-c1cc(C(=O)N[C@@H](Cc2ccccc2)CN(C)C)cc(N(C)C)c1 [Compound 218]	< 0.001	1 to 5
COc1c(CN2O[C@@H](CN)[C@@H]([C@H](C)O)[C@H]2C(=O)N[C@H]2C[C@H]3C[C@@H]([C@@H]2C)C3(C)C)cccc1-c1cc(C(=O)N[C@@H](Cc2ccccn2)CN(C)C)cc(N(C)C)c1 [Compound 252]	< 0.001	1 to 5
COc1c(CN2O[C@@H](CO)[C@@H]([C@H](C)O)[C@H]2C(=O)N[C@H]2C[C@H]3C[C@@H]([C@@H]2C)C3(C)C)cccc1-c1cc(C(=O)N[C@@H](Cc2ccccc2)CN(C)C)cc(N(C)CCO)c1 [Compound 285]	< 0.001	< 1
COc1c(CN2O[C@@H](CN)[C@@H]([C@H](C)O)[C@H]2C(=O)N[C@H]2C[C@H]3C[C@@H]([C@@H]2C)C3(C)C)cccc1-c1cc(C(=O)NCCc2ccccc2)cc(N(C)C)c1 [Compound 62]	< 0.001	5 to 10
COc1c(CN2O[C@@H](CNC(=O)CCC(=O)O)[C@@H]([C@H](C)O)[C@H]2C(=O)N[C@H]2C[C@H]3C[C@@H]([C@@H]2C)C3(C)C)cccc1-c1cc(C(=O)N[C@H](CN(C)C)CC(C)(C)C)cc(N(C)C)c1 [Compound 114]	< 0.001	< 1
COc1c(CN2O[C@@H](CNC(=O)CCN(C)C)[C@@H]([C@H](C)O)[C@H]2C(=O)N[C@H]2C[C@H]3C[C@@H]([C@@H]2C)C3(C)C)cccc1-c1cc(C(=O)N[C@H](CN(C)C)CC(C)(C)C)cc(N(C)C)c1 [Compound 115]	< 0.001	< 1
COc1c(CN2O[C@@H](CO)[C@@H]([C@H](C)O)[C@H]2C(=O)N[C@H]2C[C@H]3C[C@@H]([C@@H]2C)C3(C)C)cccc1-c1cc(C(=O)N[C@@H](Cc2ccccc2)CN(C)C)cc([N+](=O)[O-])c1 [Compound 264]	< 0.001	< 1
CNC(=O)c1cc(-c2cccc(CN3O[C@@H](CN)[C@@H]([C@H](C)OC(=O)N(C)C)[C@H]3C(=O)N[C@H]3C[C@H]4C[C@@H]([C@@H]3C)C4(C)C)c2OC)cc(N(C)C)c1 [Compound 87]	> 0.009	> 10
CCOc1c(CN2O[C@@H](CO)[C@@H]([C@H](C)O)[C@H]2C(=O)N[C@H]2C[C@H]3C[C@@H]([C@@H]2C)C3(C)C)cccc1-c1cc(C(=O)N[C@H](CN(C)C)CS(C)(=O)=O)cc(N(C)C)c1 [Compound 176]	0.001 to 0.005	1 to 5
CCOc1c(CN2O[C@@H](CO)[C@@H]([C@H](C)O)[C@H]2C(=O)N[C@H]2C[C@H]3C[C@@H]([C@@H]2C)C3(C)C)cccc1-c1cc(C(=O)N[C@H](CC(C)C)CN(C)C)cc(N(C)C)c1 [Compound 259]	< 0.001	1 to 5
